Assays:
[1] = system: rat gastrointestinal obstruction model; assay: Gastrointestinal obstruction model: blood parameters (amylase, LDH, CPK); settings: Table 10; blood 1 hour after subcutaneous administration
Protocol: (§1) This experimental line was carried out as a test line to evaluate the promotion of intestinal fluid absorption or the secretory suppressing action, using the change in the intestinal fluid weight in the jejunum after bowel obstruction as an indicator. Moreover, blood parameters of deviation enzymes amylase (pancreas), lactate dehydrogenase (LDH, liver), and creatine phosphokinase (CPK, skeletal muscle, cardiac muscle etc.) were measured as indicators of tissue disorders.
Anesthesia was introduced with inhalation of 2% isoflurane and laughing gas:oxygen=7:3, and this was maintained throughout the surgery. A median incision was made in the abdomen, and the jejunum at about 10 cm from the musculus suspensorius duodeni was ligated with a surgical suture. Then, the incision site was promptly sutured, and the rats were fasted until compound administration. In the sham treatment group, ligation of the jejunum was not performed, but the treatment of suturing the incision site after a median incision was made in the abdomen was performed.
Eighteen hours after the gastrointestinal obstruction surgery, this was subcutaneously administered into the dorsal cervix at a dosage of 1 mL/kg with a glass syringe and a 25 G injection needle (all from Terumo Corporation). As the vehicle group, saline without glycosylated polypeptide was similarly administered.
One hour after compound administration, a median incision was made in the abdomen under inhalation anesthesia, and 1.5 mL of blood was collected from the abdominal vena cava. Then, the ligated jejunum on the musculus suspensorius duodeni side was resected. The fluid and blood on the jejunum surface were removed with a paper towel, nerves, blood vessels, and fat attached to the jejunum was removed, this was cut into 6 cm lengths, and wet weight was measured. This was then dried at 36 degrees for 24 hours, and dry weight was measured.
The measuring methods employed were BG5B, UV-rate, and JSCC methods, respectively.

[2] = system: growth hormone (GH) production; assay: GH production suppression test with rats; format: in vivo; settings: Table 7 (Example 86), subcutaneous, 1 hour before GRF, plasma GH 5 minutes after GRF, vehicle 861
Protocol: This experimental line was carried out as a test line that can evaluate the pharmacological action of the glycosylated form on SSTR and its residence in blood after administration, with blood GH production amount as an indicator.
Moreover, GRF (GH releasing hormone, Growth hormone releasing factor) was used as the GH release enhancer. […] As heparin employed as the anticoagulant when collecting blood, Japanese Pharmacopeia heparin sodium injectable solution (Lot. B084, from Mochida Pharmaceutical Co., Ltd.) was used directly as stock solution.
As the control group, saline without glycosylated polypeptide was similarly administered (vehicle group). […] One hour after administration of the glycosylated form, i.e. after 50 minutes or more had passed under anesthesia, GRF was administered as the GH release enhancer to the tail vain at a dosage of 1 mL/kg with a glass syringe and an injection needle. Five minutes after administration of GRF, blood was collected from the rat cervical vein with a glass syringe containing heparin and an injection needle. 0.4 mL of the collected blood was left on ice for 20 minutes or more, then centrifuged (1,870×g, 4° C., 10 minutes), and 100 μL of the supernatant was taken as the plasma sample. As blank plasma, plasma obtained by similarly treating the blood collected from untreated rat cervical vein was employed. Plasma samples were frozen in storage until employed for measurement.
The plasma sample was diluted with the assay buffer supplied in the EIA kit to 20, 100, and 500-folds as measurement samples. […] By multiplying the results obtained and the dilution ratio, the GH concentration was calculated.

[3] = system: rat gastrointestinal obstruction model; assay: Gastrointestinal obstruction model: intestinal fluid weight; format: in vivo, rats; settings: Table 9; jejunum, 1 hour after subcutaneous administration of 40 μM solution at 1 mL/kg, 18 hours after ligation
Protocol: as §1
Anesthesia was introduced with inhalation of 2% isoflurane and laughing gas:oxygen=7:3, and this was maintained throughout the surgery. A median incision was made in the abdomen, and the jejunum at about 10 cm from the musculus suspensorius duodeni was ligated with a surgical suture. Then, the incision site was promptly sutured, and the rats were fasted until compound administration. […]
One hour after compound administration, a median incision was made in the abdomen under inhalation anesthesia, and 1.5 mL of blood was collected from the abdominal vena cava. […] The fluid and blood on the jejunum surface were removed with a paper towel, nerves, blood vessels, and fat attached to the jejunum was removed, this was cut into 6 cm lengths, and wet weight was measured. This was then dried at 36 degrees for 24 hours, and dry weight was measured.

Compound | amylase activity compared to the vehicle (in words) [1] | GH ([2]; dose 10 nmol/kg) [ng/mL] | GH ([2]; dose 100 nmol/kg) [ng/mL] | Intestinal fluid weight [3] [mg] | also measured
S1C(disialo)-SRIF28 [Example 1] | low value compared to the vehicle |  |  |  | 
C(disialo)-R-K-SRIF14 [Example 18] | low value compared to the vehicle |  |  |  | LDH activity compared to the vehicle (in words) [1]: low value compared to the vehicle
N19C(disialo)-SRIF28 [Example 10] |  | 563 | 1.5 |  | 
29C(disialo)-SRIF28 [Example 13] |  | 497 | 88.5 |  | 
C[C@@H](O)[C@@H]1NC(=O)[C@H](CCCCN)NC(=O)[C@@H](Cc2c[nH]c3ccccc23)NC(=O)[C@H](Cc2ccccc2)NC(=O)[C@@H](NC(=O)[C@H](N)Cc2ccccc2)CSSC[C@@H](C(=O)N[C@H](CO)[C@@H](C)O)NC1=O [Octreotide, reference compound] |  |  |  | 693 ± 48 | 
S1-2C(asialo)-SRIF28 [Example 28] |  |  |  | 566 ± 34 | 

— US20170157260A1, “Glycosylated Polypeptide and Drug Composition Containing said Polypeptide” (Glytech, Inc., priority 2011, published 2017)
